Source: BindingDB's records for doi:10.1006/jmbi.2000.4032 (Cnrs, 2000)

Assays:
[1] = molecular target: T1, Retinoic acid receptor beta [200-419] (Homo sapiens, UniProt P10826); assay: Retinoid Competition Binding Assay; conditions: pH 7.9; 4 °C
T1 construct: 200-419
T1 sequence (P10826 whole entry): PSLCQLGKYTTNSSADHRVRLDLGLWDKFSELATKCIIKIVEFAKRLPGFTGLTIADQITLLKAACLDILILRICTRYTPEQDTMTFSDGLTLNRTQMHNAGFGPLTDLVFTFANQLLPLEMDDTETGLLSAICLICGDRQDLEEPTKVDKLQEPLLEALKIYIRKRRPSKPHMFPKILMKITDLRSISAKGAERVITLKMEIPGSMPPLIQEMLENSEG

[2] = molecular target: T2, Retinoic acid receptor alpha [200-419] (Homo sapiens, UniProt P10276); assay: Retinoid Competition Binding Assay; conditions: pH 7.9; 4 °C
T2 construct: 200-419
T2 sequence (P10276 whole entry): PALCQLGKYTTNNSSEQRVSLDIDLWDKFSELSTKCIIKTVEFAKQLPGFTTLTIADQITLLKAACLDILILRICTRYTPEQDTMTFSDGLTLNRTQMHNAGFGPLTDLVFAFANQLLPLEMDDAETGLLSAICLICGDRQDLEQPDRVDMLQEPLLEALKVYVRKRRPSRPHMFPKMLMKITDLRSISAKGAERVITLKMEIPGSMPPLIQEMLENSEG

Kd [1]: 3.5 nM
Kd [2]: 0.4 nM
SMILES: CC1(C)CCC(C)(C)c2cc(C(=O)/C=C/c3ccc(C(=O)O)cc3)ccc21 [Ch 80]
